The results in this text go back to ChEMBL document CHEMBL4627415, “Design and Structural Optimization of Dual FXR/PPARδ Activators” (J Med Chem, 2020).

Molecules are shown by their SMILES. Activity calls are given as the source filed them. No cut-off for these calls is given here.

What all share (assay type): cell-based
In assay [1] the target is T1, Retinoic acid receptor RXR-alpha (Homo sapiens) (UniProt P19793).
T1 sequence (whole entry): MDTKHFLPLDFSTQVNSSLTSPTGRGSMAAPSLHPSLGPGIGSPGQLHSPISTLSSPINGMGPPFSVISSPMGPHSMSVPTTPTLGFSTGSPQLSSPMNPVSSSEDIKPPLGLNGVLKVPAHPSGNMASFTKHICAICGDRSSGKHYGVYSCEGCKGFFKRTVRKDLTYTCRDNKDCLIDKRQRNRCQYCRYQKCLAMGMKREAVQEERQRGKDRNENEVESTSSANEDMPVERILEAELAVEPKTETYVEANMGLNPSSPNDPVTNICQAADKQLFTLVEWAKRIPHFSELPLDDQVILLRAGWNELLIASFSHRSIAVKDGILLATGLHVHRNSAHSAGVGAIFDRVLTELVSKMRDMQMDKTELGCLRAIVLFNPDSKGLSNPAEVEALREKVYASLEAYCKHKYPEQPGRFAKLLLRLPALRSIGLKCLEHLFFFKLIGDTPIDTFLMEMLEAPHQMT
Nature of the assay: Activation of human RXR-alphaLBD expressed in HEK293T cells assessed as induction of receptor activation at 10 uM incubated for 12 to 14 hrs by luciferase reporter gene assay. To be noted: HEK-293T. (A reporter such as luciferase makes a cellular process visible.)

Assay [2] has as its target T2, Peroxisome proliferator-activated receptor alpha (Homo sapiens) (UniProt Q07869).
T2 sequence (whole entry): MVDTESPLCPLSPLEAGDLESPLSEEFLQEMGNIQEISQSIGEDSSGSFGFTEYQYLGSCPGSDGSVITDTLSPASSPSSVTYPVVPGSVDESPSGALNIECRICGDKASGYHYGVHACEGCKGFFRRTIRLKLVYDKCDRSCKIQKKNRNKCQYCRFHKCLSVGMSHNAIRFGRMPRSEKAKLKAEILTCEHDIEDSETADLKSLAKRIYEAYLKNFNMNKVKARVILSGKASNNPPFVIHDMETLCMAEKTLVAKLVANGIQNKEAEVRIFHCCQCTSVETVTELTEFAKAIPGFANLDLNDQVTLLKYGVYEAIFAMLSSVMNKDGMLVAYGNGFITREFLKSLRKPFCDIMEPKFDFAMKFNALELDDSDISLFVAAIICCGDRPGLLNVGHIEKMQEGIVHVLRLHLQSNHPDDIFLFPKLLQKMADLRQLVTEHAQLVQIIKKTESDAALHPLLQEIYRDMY
Briefly: Activation of human PPAR-alpha LBD expressed in HEK293T cells assessed as induction of receptor activation at 10 uM incubated for 12 to 14 hrs by luciferase reporter gene assay. The following applies: HEK-293T.

The target in assay [3] is T3, Peroxisome proliferator-activated receptor gamma (Homo sapiens) (UniProt P37231).
T3 sequence (whole entry): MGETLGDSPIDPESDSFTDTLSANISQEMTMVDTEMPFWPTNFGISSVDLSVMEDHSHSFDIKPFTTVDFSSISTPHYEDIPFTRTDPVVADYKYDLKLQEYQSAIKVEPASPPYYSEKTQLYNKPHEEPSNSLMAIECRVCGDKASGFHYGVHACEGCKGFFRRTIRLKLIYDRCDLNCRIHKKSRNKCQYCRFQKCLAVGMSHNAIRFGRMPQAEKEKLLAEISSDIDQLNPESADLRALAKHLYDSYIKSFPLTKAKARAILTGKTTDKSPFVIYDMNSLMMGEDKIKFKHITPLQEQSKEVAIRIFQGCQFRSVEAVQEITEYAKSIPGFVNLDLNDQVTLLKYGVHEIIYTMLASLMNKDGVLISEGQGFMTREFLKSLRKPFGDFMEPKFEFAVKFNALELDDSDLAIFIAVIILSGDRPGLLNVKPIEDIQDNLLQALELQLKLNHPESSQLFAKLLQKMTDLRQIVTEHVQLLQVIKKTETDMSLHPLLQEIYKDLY
Nature of the assay: Activation of human PPAR-gamma LBD expressed in HEK293T cells assessed as induction of receptor activation at 10 uM incubated for 12 to 14 hrs by luciferase reporter gene assay. The following applies: HEK-293T.

For assay [4], the target named is T4, Oxysterols receptor LXR-alpha (Homo sapiens) (UniProt Q13133).
T4 sequence (whole entry): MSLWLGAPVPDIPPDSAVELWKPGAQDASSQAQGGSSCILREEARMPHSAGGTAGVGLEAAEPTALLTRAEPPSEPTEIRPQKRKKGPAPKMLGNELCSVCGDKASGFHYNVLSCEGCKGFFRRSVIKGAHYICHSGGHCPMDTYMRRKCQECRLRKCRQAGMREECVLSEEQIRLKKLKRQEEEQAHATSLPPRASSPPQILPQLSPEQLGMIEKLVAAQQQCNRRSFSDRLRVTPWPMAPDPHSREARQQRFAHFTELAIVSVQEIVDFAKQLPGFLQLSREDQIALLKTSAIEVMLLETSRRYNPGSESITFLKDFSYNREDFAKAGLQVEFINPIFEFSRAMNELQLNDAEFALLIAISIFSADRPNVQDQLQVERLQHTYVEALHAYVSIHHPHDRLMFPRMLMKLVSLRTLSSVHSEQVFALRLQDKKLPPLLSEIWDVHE
Nature of the assay: Activation of human LXR-alpha LBD expressed in HEK293T cells assessed as induction of receptor activation at 10 uM incubated for 12 to 14 hrs by luciferase reporter gene assay. The following applies: HEK-293T.

Assay [5] deals with T5, Peroxisome proliferator-activated receptor delta (Mus musculus) (UniProt P35396).
T5 sequence (whole entry): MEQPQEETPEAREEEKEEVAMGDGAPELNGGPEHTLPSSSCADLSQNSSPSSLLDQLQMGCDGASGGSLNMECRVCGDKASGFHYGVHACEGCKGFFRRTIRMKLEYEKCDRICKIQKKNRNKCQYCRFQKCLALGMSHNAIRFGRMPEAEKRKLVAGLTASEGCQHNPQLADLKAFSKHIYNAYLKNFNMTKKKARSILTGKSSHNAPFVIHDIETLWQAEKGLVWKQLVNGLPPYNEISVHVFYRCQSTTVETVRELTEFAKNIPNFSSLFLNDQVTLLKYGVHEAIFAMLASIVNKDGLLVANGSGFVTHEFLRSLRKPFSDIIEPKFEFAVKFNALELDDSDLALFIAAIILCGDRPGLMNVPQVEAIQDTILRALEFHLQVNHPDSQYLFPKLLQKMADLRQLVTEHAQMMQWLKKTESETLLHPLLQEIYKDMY
Nature of the assay: Activation of PPARD in mouse C2C12 cells assessed as increase PCK mRNA expression at 3 uM incubated for 8 hrs by quantitative real time PCR analysis. In general terms: In qPCR the cycle at which signal appears reflects the starting amount.

Take `CC(C)c1onc(-c2c(Cl)cccc2Cl)c1COc1ccc(CNc2ccc(CC(=O)O)cc2)c(Cl)c1`: the result in assay [1], in assay [2], in assay [3] and in assay [4] was inactive. The result in assay [5] was Active.
